The text below walks through data of patent US7270767B1, “Environmentally friendly de-icer and anti-icer compositions” (priority 1999, dated 2007).

The subject of series [1] is Rat. As to conditions: cited from earlier work.
For series [2], the system named is D. Magnia. Kind of series: Acute aquatic toxicity, 48 hr LC50. The format is in vivo, daphnia magna. From the text: The present invention provides for deicing and anti-icing compositions that are environmentally advantaged.
As aforesaid, there are environmental issues associated with deicers and anti-icers, mostly as a result of the type of FPD used. Freezing point depressants are typically toxic to mammals. Ethylene glycol, in particular, is toxic to mammals (see rat LD50 data, Table 3). LC50, refers to Lethal Concentration, 50%, which is the concentration of a substance at which 50% of the population of test organisms die. Ethylene glycol has also been listed by the EPA as a hazardous air pollutant (HAP).
Another aspect of concern is the toxicity of FPDs on aquatic life and environment. […] (see Table 4, FPD aquatic toxicity data).

Series [3] in a line: Surface tension. It is filed as physicochemical. From the text: Surfactants by their very nature can have toxic effects on aquatic organisms. They can coat surfaces or membranes required for the organism's oxygen exchange with the environment. Thus, it is advantageous for surfactants to degrade rapidly in the environment once their useful purpose has been served. Preferred surfactants for use in the present formulations have low aquatic toxicity (Table 4) and are biodegradable (see FIG. 2). Preferably they are soluble or dispersible in water, so that they form homogenous solutions or mixtures with the FPD/water mixtures in the fluid. Also it is preferred that the surfactant reduces the surface tension of the fluid below 35 dynes/cm (see surface tension, Table 6).

Where two headings read alike, the source gives them in different places.

Take `CC(O)CCO` (centres unmarked) [1,3 Butanediol, reference compound]: the “Rat Acute Oral Toxicity (LD50, g/kg)” value in series [1] (oral, acute) is 18.6 g/kg.
Regarding `OCCO` [Ethylene glycol, reference compound], the “Acute tox. to D. Magnia, ppm (48 hr LC50)” value (“Acute tox. to D. Magnia, ppm” for short) in series [2] was 77,000 ppm.
For `CC(O)CO` (centres unmarked) [Propylene glycol, reference compound], the “Acute tox. to D. Magnia, ppm” value in series [2] was 55,000 ppm.
On to `OCCOCCOCCO` [Triethylene glycol], for which the “Acute tox. to D. Magnia, ppm” value in series [2] is recorded as 66,000 ppm. In addition, the “Rat Acute Oral Toxicity (LD50, g/kg)” value in series [1] (in vivo, po) is 17 g/kg.
On to `O` [Water], for which the “Surface Tension (dynes/cm)” value in series [3] is listed as 75 dynes/cm.
Regarding PEG-12 oleate, the “Acute tox. to D. Magnia, ppm” value in series [2] was 13,000 ppm.
Still for that read-out and setting: as for PEG-20 sorbitan oleate, the figure is 46,000 ppm.
